Consider 20 molecules from patent US6080738A, “Heterocyclic amide compounds and medicinal uses thereof” (Yoshitomi Pharmaceuticals Industries, Ltd., priority 1996, dated 2000).

This assay concerns the target T1, human heart chymase (Homo sapiens, UniProt P23946).
T1 sequence (P23946 22-247): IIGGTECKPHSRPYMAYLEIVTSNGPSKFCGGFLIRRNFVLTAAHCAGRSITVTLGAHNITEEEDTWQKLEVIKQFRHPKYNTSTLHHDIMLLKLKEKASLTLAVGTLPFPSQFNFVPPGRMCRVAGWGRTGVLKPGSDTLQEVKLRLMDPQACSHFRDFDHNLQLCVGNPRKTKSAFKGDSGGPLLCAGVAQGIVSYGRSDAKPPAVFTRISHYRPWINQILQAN
Kind of assay: Inhibitory activity on amidase activity of human heart chymase. Type of assay: biochemical. As to conditions: 5 nM chymase; substrate succinyl-alanyl-alanyl-prolyl-phenylalanine-p-nitroanilide 2.5 mM; Tris-HCl (100 mM)-KCl (2 M), pH 7.5. On the procedure:
The effectiveness of the inhibitory activity of compound (I) and compound (XXVI) of the present invention was evaluated based on the inhibitory activity on amidase activity of human heart chymase, which was determined as in the following.
The inhibitory activity was quantitatively determined through variation in fractional residual activity of the enzyme caused by the inventive compound in defined serial concentration (<×1, <×10, <×100-fold equivalents) relative to 5 nM chymase in the presence of synthetic substrate, succinyl-alanyl-alanyl-prolyl-phenylalanine-p-nitroanilide (final concentration 2.5 mM). The inhibitory effect was analyzed by least square regression of Easson-Stedman plot (Proc. Roy. Soc. B. 1936, 121, p. 141) utilizing bimolecular equilibrium reaction linearization formula. The inhibitory activity was evaluated by the apparent inhibitory constant (Kiapp) obtained by this analysis and inhibitory constant (Ki) calculated from final substrate concentration in the reaction mixture and Km values separately determined. With regard to the quantlitative determination of initial rate of the enzyme reaction, the amount of p-nitroaniline produced by hydrolysis of the substrate was spectrophotometrically detected in terms of an increased absorbance which was obtained by subtracting absorbance at 650 nm wavelength from the absorbance at 405 nm. The chymase inhibitory activity of the compound of the present invention was calculated as ratio of residual activity in the presence of inhibitor relative to enzyme activity in the absence of inhibitor, and incorporation of the determination values was completed at a level less than initial rate guarantee absorbance at a concentration of the substrate used for the enzyme, after which analysis was performed.
The reaction mixture consisted of a buffer (pH 7.5, 140 μl) of Tris-HCl (100 mM) - KCl (2 M), the inventive compound dissolved in 20 μl of 10% dimethyl sulfoxide (DMSO), substrate dissolved in 20 μl of DMSO, and 20 μl of chymase, thus amounting to 200 μl in total.
Starting with the absorbance immediately after addition of the enzyme, increases in absorbance were recorded as a progressive curve taken precisely at equal time intervals.
From the above data, the difference between absorbances at completion of the reaction and immediately after addition was used to quantitatively determine the residual activity of the sample added with the inhibitor relative to a control wherein the inhibitor was not added. Alternatively, reaction rates of the control and the sample added with the inhibitor were calculated for certain time period (≥20 min) with successive shift (every 10 to 30 minutes) of the period, and the residual activity ratio was quantitatively determined and analyzed from the respective reaction rates averaged through the entire reaction time.

SMILES strings stand for the structures.

With `COC(=O)c1ccc2oc(C(=O)C(Cc3ccccc3)NC(=O)Cn3c(-c4ccc(F)cc4)ncc(NC(=O)OCc4ccccc4)c3=O)nc2c1` (centres unmarked) [Example 3, 2-[5-benzyloxycarbonylamino-2-(4-fluorophenyl)-6-oxo-1,6-dihydro-1-pyrimidinyl]-N-[1-[[5-(methoxycarbonyl)benzoxazol-2-yl]carbonyl]-2-phenylethyl]acetamide], the inhibition constant (Ki) was determined as 1300 nM.
Under `Nc1cnc(-c2ccc(F)cc2)n(CC(=O)NC(Cc2ccccc2)C(=O)c2nc3cc(C(=O)O)ccc3o2)c1=O` (centres unmarked) [Example 5, 2-[5-amino-2-(4-fluorophenyl)-6-oxo-1,6-dihydro-1-pyrimidinyl]-N-[1-[(5-carboxylbenzoxazol-2-yl)carbonyl]-2-phenylethyl]acetamide] stands 76 nM; under `COC(=O)c1ccc2nc(C(=O)C(Cc3ccccc3)NC(=O)Cn3c(-c4ccc(F)cc4)ncc(N)c3=O)oc2c1` (centres unmarked) [Example 7, 2-[5-amino-2-(4-fluorophenyl)-6-oxo-1,6-dihydro-1-pyrimidinyl]-N-[1-[[6-(methoxycarbonyl)benzoxazol-2-yl]carbonyl]-2-phenylethyl]acetamide], 56 nM; under `O=CC(Cc1ccccc1)NC(=O)Cn1c(-c2ccc(F)cc2)ncc(NC(=O)OCc2ccccc2)c1=O` (centres unmarked) [Example 9, 2-[5-benzyloxycarbonylamino-2-(4-fluorophenyl)-6-oxo-1,6-dihydro-1-pyrimidinyl]-N-(1-formyl-2-phenylethyl)acetamide], 1840 nM.
In turn, `Nc1ccc2oc(C(=O)C(Cc3ccccc3)NC(=O)Cn3c(-c4ccc(F)cc4)ncc(N)c3=O)nc2c1` (centres unmarked) [Example 15, 2-[5-amino-2-(4-fluorophenyl)-6-oxo-1,6-dihydro-1-pyrimidinyl]-N-[1-[(5-aminobenzoxazol-2-yl)carbonyl]-2-phenylethyl]acetamide] came in with a Ki of 183 nM.
Consider `Nc1cnc(-c2ccc(F)cc2)n(CC(=O)NC(Cc2ccccc2)C(=O)c2nc3cc(NS(=O)(=O)C(F)(F)F)ccc3o2)c1=O` (centres unmarked) [Example 17, 2-[5-amino-2-(4-fluorophenyl)-6-oxo-1,6-dihydro-1-pyrimidinyl]-N-[1-[[5-(trifluoromethanesulfonylamino)benzoxazol-2-yl]carbonyl]-2-phenylethyl]acetamide], for which the Ki is 130 nM.
Take `O=C(Cn1c(-c2ccc(F)cc2)ncc(NC(=O)OCc2ccccc2)c1=O)NC(Cc1ccccc1)C(=O)c1nccs1` (centres unmarked) [Example 21, 2-[5-benzyloxycarbonylamino-2-(4-fluorophenyl)-6-oxo-1,6-dihydro-1-pyrimidinyl]-N-[2-phenyl-1-[(2-thiazolyl)carbonyl]ethyl]acetamide]: the Ki stood at 111 nM.
As to `O=C(Cn1c(-c2ccc(F)cc2)ncc(NC(=O)OCc2ccccc2)c1=O)NC(Cc1ccccc1)C(=O)C1=NCCO1` (centres unmarked) [Example 23, 2-[5-benzyloxycarbonylamino-2-(4-fluorophenyl)-6-oxo-1,6-dihydro-1-pyrimidinyl]-N-[1-[(2-oxazolinyl)carbonyl]-2-phenylethyl]acetamide], the inhibitory constant (Ki) turned out to be 48 nM.
The figure for `Nc1cnc(-c2ccc(F)cc2)n(CC(=O)NC(Cc2ccccc2)C(=O)c2nc3cc(F)ccc3o2)c1=O` (centres unmarked) [Example 26, 2-[5-amino-2-(4-fluorophenyl)-6-oxo-1,6-dihydro-1-pyrimidinyl]-N-[1-[(5-fluorobenzoxazol-2-yl)carbonyl]-2-phenylethyl]acetamide] is 93 nM; for `CN(C)C(=O)c1ccc2oc(C(=O)C(Cc3ccccc3)NC(=O)Cn3c(-c4ccc(F)cc4)ncc(NC(=O)OCc4ccccc4)c3=O)nc2c1` (centres unmarked) [Example 31, 2-[5-benzyloxycarbonylamino-2-(4-fluorophenyl)-6-oxo-1,6-dihydro-1-pyrimidinyl]-N-[1-[[5-(dimethylaminocarbonyl)benzoxazol-2yl)carbonyl]-2-phenylethyl]acetamide] it is 16 nM; for `Nc1cnc(-c2ccc(F)cc2)n(CC(=O)NC(Cc2ccc(F)cc2)C(=O)c2nc3ccccc3o2)c1=O` (centres unmarked) [Example 40, 2-[5-amino-2-(4-fluorophenyl)-6-oxo-1,6-dihydro-1-pyrimidinyl]-N-[1-[(benzoxazol-2-yl)carbonyl]-2-(4-fluorophenyl)ethyl]acetamide] it is 990 nM.
`CCOC(=O)c1ccc2oc(C(=O)C(Cc3ccccc3)NC(=O)Cn3c(-c4ccccc4)ncc(N)c3=O)nc2c1` (centres unmarked) [Example 44] came in with an inhibition constant Ki of 2 nM.
`O=C(Cn1c(-c2ccccc2)ncc(NC(=O)OCc2ccccc2)c1=O)NC(Cc1ccccc1)C(=O)c1nc2ncccc2o1` (centres unmarked) [Example 45, 2-(5-benzyloxycarbonylamino-6-oxo-2-phenyl-1,6-dihydro-1-pyrimidinyl)-N-[1-[(oxazolo[4,5-b]pyridin-2-yl)carbonyl]-2-phenylethyl]acetamide]: the affinity corresponds to a Ki of 24 nM.
The figure for `Cc1cccc(-c2ncc(NC(=O)OCc3ccccc3)c(=O)n2CC(=O)NC(Cc2ccccc2)C(=O)c2nc3cc(C(N)=O)ccc3o2)c1` (centres unmarked) [Example 53, 2-[5-benzyloxycarbonylamino-6-oxo-2-(m-tolyl)-1,6-dihydro-1-pyrimidinyl]-N-[1-[(5-carbamoylbenzoxazol-2-yl)carbonyl]-2-phenylethyl]acetamide] is 66 nM.
Under `CCNC(=O)c1ccc2oc(C(=O)C(Cc3ccccc3)NC(=O)Cn3c(-c4cccc(C)c4)ncc(NC(=O)OCc4ccccc4)c3=O)nc2c1` (centres unmarked) [Example 55, 2-[5-benzyloxycarbonylamino-6-oxo-2-(m-tolyl)-1,6-dihydro-1-pyrimidinyl]-N-[1-[[5-(ethylaminocarbonyl)benzoxazol-2-yl]carbonyl]-2-phenylethyl]acetamid] stands 59 nM; under `CCN(CC)C(=O)c1ccc2oc(C(=O)C(Cc3ccccc3)NC(=O)Cn3c(-c4cccc(C)c4)ncc(N)c3=O)nc2c1` (centres unmarked) [Example 58, 2-[5-amino-6-oxo-2-(m-tolyl)-1,6-dihydro-1-pyrimidinyl]-N-[1-[[5-(diethylaminocarbonyl)benzoxazol-2-yl]carbonyl]-2-phenylethyl]acetamide], 12 nM; under `CCOC(=O)c1ccc2oc(C(=O)C(Cc3ccccc3)NC(=O)Cn3c(-c4cccnc4)ncc(N)c3=O)nc2c1` (centres unmarked) [Example 64, 2-[5-amino-6-oxo-2-(3-pyridyl)-1,6-dihydro-1-pyrimidinyl]-N-[1-[[5-(ethoxycarbonyl)benzoxazol-2yl]carbonyl]-2-phenylethyl]acetamide], 45 nM.
Regarding `Nc1cnc(-c2cccnc2)n(CC(=O)NC(Cc2ccccc2)C(=O)c2nc3ncccc3o2)c1=O` (centres unmarked) [Example 72, 2-[5-amino-6-oxo-2-(3-pyridyl)-1,6-dihydro-1-pyrimidinyl]-N-[1-[(oxazolo[4,5-b]pyridin-2-yl)carbonyl]-2-phenylethyl]acetamide], the inhibitory constant (Ki) stood at 74 nM.
Under `COC(=O)c1ccc2oc(C(=O)C(Cc3ccccc3)NC(=O)Cn3c(-c4ccncc4)ncc(NC(=O)OCc4ccccc4)c3=O)nc2c1` (centres unmarked) [Example 73, 2-[5-benzyloxycarbonylamino-6-oxo-2-(4-pyridyl)-1,6-dihydro-1-pyrimidinyl]-N-[1-[[5-(methoxycarbonyl)benzoxazol-2-yl]carbonyl]-2-phenylethyl]acetamide] stands 59 nM; under `COC(=O)c1ccc2oc(C(=O)C(Cc3ccccc3)NC(=O)Cn3c(-c4cccc([N+](=O)[O-])c4)ncc(N)c3=O)nc2c1` (centres unmarked) [Example 80, 2-[5-amino-2-(3-nitrophenyl)-6-oxo-1,6-dihydro-1-pyrimidinyl]-N-[1-[[5-(methoxycarbonyl)benzoxazol-2-yl]carbonyl]-2-phenylethyl]acetamide], 42 nM.

In general, Ki refers to the dissociation constant of the complex between target and ligand, obtained from inhibition or displacement. Read a low Ki as a stronger hold on the target.
